Assays:
Test in all cases: relative viability (nuclei count vs DMSO), 5 days (fraction); higher = more cells survive
[1] = compound: C1=CC=C(C(=C1)C2=CC=C(C=C2)C3=CSC4=C3C(=C(C(=O)N4)C#N)O)O
Method in brief: (§1)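 Viability here means nuclei in treated wells divided by nuclei in vehicle wells, reported as the median across plates. Only plates with control CV below 25% and at least one doubling passed. Lung cancer cell lines in 1536-well plates were exposed to five √10-spaced library-drug doses for 5 days and counted from 4× Hoechst images in MetaXpress.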

TGX 221 = compound: CC1=CN2C(=O)C=C(N=C2C(=C1)C(C)NC3=CC=CC=C3)N4CCOCC4 [TGX 221]
Method in brief: as §1

Ricolinostat = compound: O=C(CCCCCCNC(=O)c1cnc(N(c2ccccc2)c2ccccc2)nc1)NO [Ricolinostat]
Method in brief: as §1

TGX 221 + Crizotinib = compound: CC1=CN2C(=O)C=C(N=C2C(=C1)C(C)NC3=CC=CC=C3)N4CCOCC4 [TGX 221] + C[C@@H](Oc1cc(-c2cnn(C3CCNCC3)c2)cnc1N)c1c(Cl)ccc(F)c1Cl [Crizotinib] (partner 1 µM)
Method in brief: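 Five library-drug doses in √10 steps were combined with a fixed anchor-drug dose, or a single drug was given alone, by pin tool to lung cancer cell lines in 1536-well plates the day after seeding. Nuclei were stained and counted after 5 days. Relative viability is the nuclei count in treated wells over that in vehicle wells, taken as the median of duplicate plates.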

| Cell Line | relative viability ([1]; 0.08 µM) | relative viability ([1]; 0.253 µM) | relative viability ([1]; 0.8 µM) | relative viability ([1]; 2.53 µM) | relative viability ([1]; 8 µM) | relative viability (TGX 221; 0.08 µM) | relative viability (TGX 221; 0.253 µM) | relative viability (TGX 221; 0.8 µM) | relative viability (TGX 221; 2.53 µM) | relative viability (TGX 221; 8 µM) | relative viability (Ricolinostat; 0.08 µM) | relative viability (Ricolinostat; 0.253 µM) | relative viability (Ricolinostat; 0.8 µM) | relative viability (Ricolinostat; 2.53 µM) | relative viability (TGX 221 + Crizotinib; first compound 0.08 µM) | relative viability (TGX 221 + Crizotinib; first compound 0.253 µM) | relative viability (TGX 221 + Crizotinib; first compound 0.8 µM) | relative viability (TGX 221 + Crizotinib; first compound 2.53 µM) | relative viability (TGX 221 + Crizotinib; first compound 8 µM) |
| --- | --- | --- | --- | --- | --- | --- | --- | --- | --- | --- | --- | --- | --- | --- | --- | --- | --- | --- | --- |
| NCI-H1299 | 1.09 | 1.07 | 1.01 | 1.06 | 0.897 | 0.98 | 1.01 | 1.01 | 1.06 | 0.993 | 0.997 | 0.983 | 0.982 | 0.954 | 0.933 | 0.942 | 0.949 | 0.96 | 0.904 |
| UMC-11 | 0.793 | 0.892 | 1.07 | 0.921 | 0.813 | 0.957 | 0.91 | 1 | 0.976 | 1.08 | 0.889 | 0.945 | 0.866 | 0.464 | 0.66 | 0.559 | 0.557 | 0.591 | 0.661 |
| NCI-H1755 | 1.06 | 1.08 | 0.991 | 1.05 | 0.923 | 0.954 | 0.971 | 0.972 | 0.915 | 0.828 | 0.885 | 0.961 | 0.978 | 1.03 | 0.873 | 0.863 | 0.827 | 0.752 | 0.607 |
| SK-LU-1 | 1.11 | 0.96 | 0.994 | 1.16 | 0.81 | 0.954 | 0.964 | 0.963 | 0.932 | 0.876 | 0.939 | 0.981 | 0.995 | 0.72 | 0.836 | 0.809 | 0.901 | 0.825 | 0.803 |
| NCI-H1793 | 0.786 | 1.17 | 0.9 | 0.834 | 0.945 | 0.858 | 0.628 | 0.748 | 0.574 | 0.668 |  | 0.924 | 0.905 | 0.898 |  |  |  |  |  |
| NCI-H647 | 0.825 | 1 | 0.903 | 0.892 | 0.707 | 0.856 | 0.809 | 0.889 | 0.738 | 0.621 | 0.745 | 0.903 | 0.867 | 0.712 | 1.12 | 0.947 | 1.06 | 1.04 | 0.553 |
| NCI-H1975 | 0.892 | 0.949 | 0.932 | 0.887 | 0.772 | 0.911 | 0.866 | 0.998 | 0.844 | 0.785 | 0.928 | 0.895 | 0.803 | 0.872 | 0.985 | 0.878 | 0.996 | 0.935 | 0.803 |
| NCI-H1648 | 0.644 | 0.68 | 0.755 | 0.794 | 0.739 | 0.736 | 0.656 | 0.974 | 0.686 | 0.873 | 0.719 | 1.04 | 0.745 | 0.792 |  |  |  |  |  |
| NCI-H2126 | 0.943 | 1.09 | 1 | 0.963 | 0.979 | 0.945 | 0.989 | 0.968 | 0.837 | 0.944 | 0.718 | 1.01 | 0.989 | 0.969 | 0.992 | 1.04 | 0.963 | 0.975 | 0.966 |

From the supplement of paper PMC10307832
